From the supplement of paper PMC10307832

Experiments:
Assay in all cases: relative viability (nuclei count vs DMSO), 5 days (fraction); higher = more cells survive
[1] = compound: CCC1=CN=CN=C1N2CCN(CC2)CC3=NC4=C(N3)C=C(C=C4)C(F)(F)F + CCNC(=O)c1noc(-c2cc(C(C)C)c(O)cc2O)c1-c1ccc(CN2CCOCC2)cc1 [Luminespib] (partner 0.01 µM)
Outline: (§1)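 Lung cancer cell lines in 1536-well plates got either a single drug or a fixed anchor-drug dose together with five library-drug doses (not always all listed) in √10 steps, by pin tool, on the day after seeding. Nuclei were counted after 5 days, and relative viability is the treated-to-vehicle ratio of nuclei counts. Values are medians of duplicate plates.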

[2] = compound: CCn1c(-c2nonc2N)nc2cnc(Oc3cccc(NC(=O)c4ccc(OCCN5CCOCC5)cc4)c3)cc21 + O=C(CCCCCCC(=O)Nc1ccccc1)NO [Vorinostat] (partner 1 µM)
Outline: as §1

Mirin + Vorinostat = compound: N=C1NC(=O)/C(=C/c2ccc(O)cc2)S1 [Mirin] + O=C(CCCCCCC(=O)Nc1ccccc1)NO [Vorinostat] (partner 1 µM)
Outline: as §1

Mirin + Pictilisib = compound: N=C1NC(=O)/C(=C/c2ccc(O)cc2)S1 [Mirin] + CS(=O)(=O)N1CCN(Cc2cc3nc(-c4cccc5[nH]ncc45)nc(N4CCOCC4)c3s2)CC1 [Pictilisib] (partner 1 µM)
Outline: as §1

Cell Line | relative viability ([1]; first compound 0.04 µM) | relative viability ([1]; first compound 0.1265 µM) | relative viability ([1]; first compound 0.4 µM) | relative viability ([1]; first compound 1.265 µM) | relative viability ([1]; first compound 4 µM) | relative viability ([2]; first compound 0.04 µM) | relative viability ([2]; first compound 0.1265 µM) | relative viability ([2]; first compound 0.4 µM) | relative viability ([2]; first compound 1.265 µM) | relative viability ([2]; first compound 4 µM) | relative viability (Mirin + Vorinostat; first compound 0.25 µM) | relative viability (Mirin + Vorinostat; first compound 0.7906 µM) | relative viability (Mirin + Vorinostat; first compound 2.5 µM) | relative viability (Mirin + Vorinostat; first compound 7.906 µM) | relative viability (Mirin + Vorinostat; first compound 25 µM) | relative viability (Mirin + Pictilisib; first compound 0.25 µM) | relative viability (Mirin + Pictilisib; first compound 0.7906 µM) | relative viability (Mirin + Pictilisib; first compound 2.5 µM) | relative viability (Mirin + Pictilisib; first compound 7.906 µM) | relative viability (Mirin + Pictilisib; first compound 25 µM)
NCI-H1651 | 0.977 | 0.84 | 0.739 | 0.923 | 0.767 | 0.604 | 0.639 | 0.467 | 0.292 | 0.497 | 0.224 | 0.554 | 0.478 | 0.567 | 0.591 | 0.62 | 0.597 | 0.573 | 0.488 | 0.554
NCI-H1666 | 0.949 | 0.906 | 0.925 | 0.908 | 1.04 | 1.13 | 1.05 | 1.12 | 1.05 | 1.03 | 1.01 | 1.23 | 1.01 | 0.928 | 0.938 | 0.445 | 0.64 | 0.365 | 0.36 | 0.324
NCI-H1734 | 0.213 | 0.196 | 0.173 | 0.207 | 0.185 | 0.937 | 0.838 | 0.586 | 0.412 | 0.399 | 0.797 | 0.688 | 0.783 | 0.693 | 0.735 | 0.427 | 0.376 | 0.445 | 0.444 | 0.394
NCI-H1755 | 0.458 | 0.483 | 0.311 | 0.338 | 0.308 | 0.843 | 0.796 | 0.615 | 0.577 | 0.506 | 0.761 | 0.62 | 0.863 | 0.59 | 0.824 | 0.475 | 0.336 | 0.479 | 0.395 | 0.356
NCI-H1793 | 0.152 | 0.311 | 0.171 | – | 0.165 | 0.721 | 0.712 | 0.602 | 0.424 | 0.496 | 0.907 | – | 0.672 | 0.949 | 0.832 | 0.387 | 0.327 | 0.236 | 0.311 | 0.482
NCI-H1915 | 0.699 | 0.827 | 0.75 | 0.639 | 0.688 | 0.507 | 0.52 | 0.472 | 0.244 | 0.225 | 0.527 | 0.498 | 0.558 | 0.341 | 0.52 | 0.98 | – | 1.04 | 0.916 | 0.935
NCI-H1944 | 0.993 | 0.677 | 0.688 | 0.513 | 0.573 | 0.662 | 0.572 | 0.463 | 0.481 | 0.261 | 0.511 | 0.494 | 0.649 | 0.449 | 0.511 | 0.346 | – | 0.328 | 0.335 | 0.359
NCI-H1975 | 0.283 | 0.302 | 0.176 | 0.199 | 0.205 | 0.666 | 0.623 | 0.554 | 0.37 | 0.273 | 0.696 | 0.777 | 0.718 | 0.703 | 0.733 | 0.307 | 0.251 | 0.302 | 0.355 | 0.282
NCI-H1993 | 0.852 | 0.802 | 0.836 | 0.772 | 0.816 | 0.991 | 0.764 | 0.649 | 0.697 | 0.697 | 1.07 | 0.627 | 0.89 | 0.947 | 0.737 | 0.748 | 0.698 | 0.893 | 0.818 | 0.782
NCI-H2009 | 1.1 | 0.966 | 1.02 | 1.06 | 0.87 | 0.632 | 0.582 | 0.56 | 0.429 | 0.277 | 0.716 | 0.875 | 0.738 | 0.673 | 0.784 | 0.919 | 0.706 | 0.871 | 0.66 | 0.6
NCI-H2023 | 0.7 | 0.594 | 0.706 | 0.72 | 0.626 | 1.02 | 0.675 | 0.669 | 0.429 | 0.334 | 0.683 | 0.724 | 0.653 | 0.628 | 0.595 | 0.252 | 0.258 | 0.19 | 0.29 | 0.214
NCI-H2085 | 0.442 | 0.481 | 0.421 | 0.387 | 0.356 | 0.735 | 0.633 | 0.579 | 0.54 | 0.585 | 0.805 | 0.842 | 0.853 | 0.922 | 0.804 | 0.417 | 0.398 | 0.484 | 0.462 | 0.468
NCI-H2087 | 0.164 | 0.227 | 0.162 | 0.142 | 0.142 | 0.776 | 0.584 | 0.668 | 0.565 | 0.509 | 0.661 | 0.748 | 0.729 | 0.573 | 0.774 | 0.833 | 0.669 | 0.818 | 0.708 | 0.788
